Patent publication US20150217006A1, “AL-F-18-LABELED, AL-F-19-LABELED AND GA-68-LABELED GASTRIN-RELEASING PEPTIDE RECEPTOR (GRPR)-ANTAGONISTS FOR IMAGING OF PROSTATE CANCER” (Immunomedics, Inc., priority 2014, published 2015)
Like-named read-outs stand apart in the source and are kept apart here. Each block holds one compound with its values, some of them ahead of it. Residues, ends and D or L forms follow the SMILES beside them.

Columns and labels:
[1] = system: GRPR-positive PC-3 tumors; assay: Small-animal PET/CT and biodistribution in mice bearing s.c. PC-3 xenografts; details: for tumor uptake after co-injection of excess unlabeled peptide (GRPR-specificity): co-injection of 100-fold excess of unlabeled JMV4168 or JMV5132
Description: (§1) 2-3 weeks after inoculation, when tumor size averaged 200 mm^3, mice were injected intravenously with 5-10 MBq of radiolabeled peptide (200 pmol, 200 μL). To determine the receptor-mediated localization of the radiolabeled peptides, additional animals were co-injected with an excess (20 nmol) of unlabeled peptide. Mice were euthanized 1 h or 2 h post injection (p.i.) by CO2/O2 asphyxiation. Mice were first scanned in prone position on a small animal PET/CT scanner (Inveon; Siemens Preclinical Solutions). PET emission scans were acquired for 30-60 min, followed by a CT scan (spatial resolution 113.15 μm; 80 kV; and 500 μA). Scans were reconstructed using Inveon Acquisition Workplace software (version 1.5; Siemens Preclinical Solutions), using a 3-dimensional ordered-subset expectation maximization/maximization a posteriori algorithm with the following parameters: matrix, 256×256×161; pixel size, 0.40×0.40×0.796 mm; and β-value, 1.5, with uniform variance and FastMAP. After scanning, blood, tumor, and relevant organs and tissues were collected, weighed and counted in a γ-counter. The percentage injected dose per gram (% ID/g) was determined for each tissue sample.
(§2) Statistical analysis was performed using GraphPad Prism version 5.01 (San Diego, Calif., USA). […] Statistical analysis on biodistribution data was performed using a 1-way ANOVA with a Bonferroni post-hoc test, and the level of significance was set at P less than 0.05.

[2] = system: GRPR-positive PC-3 tumors; details: mouse, in vivo
Description: as §1, §2

[3] = target: T1, PC-3 cells (gastrin-releasing peptide receptor) (Homo sapiens, UniProt P30550); assay: Blocking of 125I-Bombesin binding to PC-3 cells; details: 56 to 0.44 nM
T1 construct: 3×10^6 PC-3 cells were exposed to a constant amount (˜50,000 cpms) of ^125I-Bombesin; endogenous in cells; host or cells: PC-3 cells
T1 sequence (P30550 whole entry): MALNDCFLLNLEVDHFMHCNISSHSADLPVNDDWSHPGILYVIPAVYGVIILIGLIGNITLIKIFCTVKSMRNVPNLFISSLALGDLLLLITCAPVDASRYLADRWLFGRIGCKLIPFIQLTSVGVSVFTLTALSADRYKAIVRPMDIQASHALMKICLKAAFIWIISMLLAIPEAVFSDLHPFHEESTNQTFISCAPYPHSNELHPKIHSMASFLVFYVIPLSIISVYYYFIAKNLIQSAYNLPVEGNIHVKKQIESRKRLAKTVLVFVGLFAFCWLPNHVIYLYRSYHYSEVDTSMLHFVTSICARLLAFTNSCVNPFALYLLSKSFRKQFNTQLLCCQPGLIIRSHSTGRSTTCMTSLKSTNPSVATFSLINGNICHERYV
Description: A NOTA-conjugated bombesin derivative (IMP468) was prepared as described above. […] Our initial experiment was to determine if IMP468 could specifically block bombesin from binding to PC-3 cells. We used IMP333 as a non-specific control. […] A range of 56 to 0.44 nM was used as our inhibitory concentrations.
This experiment was repeated using a commercially available BBN peptide.

in vivo = details: male, nude BALB/c, mouse, iv, 200 pmol, total radioactivity, uptake in PC-3 tumors
Description: as §1, §2

[4] = Small-animal PET/CT and biodistribution in mice bearing s.c. PC-3 xenografts; details: male, nude BALB/c, mouse, iv, 200 pmol, total radioactivity, 200 pmol
Description: as §1, §2

[5] = Octanol/water partition coefficient; format: physicochemical; details: pH 7.4, octanol / PBS pH 7.4, n=3; read-out: log P octanol/water
Description: Octanol/Water Partition Coefficient The radiolabeled peptide (1 MBq) was diluted in 500 μL phosphate-buffered saline (pH 7.4) and mixed vigorously with 500 μL octanol for 2 min using a vortex mixer. The two layers were separated by centrifugation (1000 rpm, 5 min).

[6] = male, nude BALB/c, iv, 200 pmol, 2 h

remaining in blood [2, 6]: 0.05±0.01 % ID/g
uptake in PC-3 tumors [2, 6]: 5.30±0.98 % ID/g
SMILES: CC(C)C[C@H](NC(=O)C[C@H](O)[C@H](CC(C)C)NC(=O)[C@H](Cc1c[nH]cn1)NC(=O)CNC(=O)[C@@H](NC(=O)[C@H](C)NC(=O)[C@H](Cc1c[nH]c2ccccc12)NC(=O)[C@H](CCC(N)=O)NC(=O)[C@@H](Cc1ccccc1)NC(=O)CCNC(=O)CCNC(=O)Cc1ccc(CN2CCN(CC(=O)O)CCN(CC(=O)O)CC2)cc1)C(C)C)C(N)=O [Al^18F-JMV5132]
tumor uptake after co-injection of excess unlabeled peptide (GRPR-specificity) [1]: significantly reduced

SMILES: CSCC[C@H](NC(=O)[C@H](CC(C)C)NC(=O)[C@H](Cc1c[nH]cn1)NC(=O)CNC(=O)[C@@H](NC(=O)[C@H](C)NC(=O)[C@H](Cc1c[nH]c2ccccc12)NC(=O)[C@@H](NC(=O)[C@H](Cc1c[nH]c2ccccc12)NC(=O)[C@H](CCC(N)=O)NC(=O)CCCCCCCNC(=O)CN1CCN(CC(=O)O)CCN(CC(=O)O)CC1)C(C)C)C(C)C)C(N)=O [IMP468] (HELM PEPTIDE1{[O=C(O)CN1CCN(CC(=O)O)CCN(CC(=O)[*:2])CC1].[O=C(CCCCCCCN[*:1])[*:2]].Q.W.V.W.A.V.G.H.L.M.[am]}$$$$V2.0)
block the binding of 125I-BBN [3]: could block

tissue uptake at 2 h (in vivo): 5.24 ± 0.29 %ID/g
remaining in blood [2, 6]: 0.19±0.13 % ID/g
clearance / excretion route [2]: partially hepatobiliary
SMILES: CC(C)C[C@H](NC(=O)C[C@H](O)[C@H](CC(C)C)NC(=O)[C@H](Cc1c[nH]cn1)NC(=O)CNC(=O)[C@@H](NC(=O)[C@H](C)NC(=O)[C@H](Cc1c[nH]c2ccccc12)NC(=O)[C@H](CCC(N)=O)NC(=O)[C@@H](Cc1ccccc1)NC(=O)CCNC(=O)CCNC(=O)Cc1ccc(CN2CCN(CC(=O)O)CCN(CC(=O)O)CC2)cc1)C(C)C)C(N)=O [^68Ga-JMV5132, metal not drawn]
tumor uptake after co-injection of excess unlabeled peptide (GRPR-specificity) [1]: significantly reduced

tissue uptake at 2 h ([4]; PC-3 tumor, uptake in PC-3 tumors, 2 h after injection, i.v.): 5.96 ± 1.39 %ID/g
tissue uptake at 2 h ([4]; blood, remaining in blood, 2 h p.i.): 0.09 ± 0.04 %ID/g
pancreas uptake decreased by a factor ([1]; from 1 h to 2 h p.i.): 6.1
clearance / excretion route ([1]; mice with s.c. PC-3 xenografts): exclusively via the kidney
logP [5]: -2.53 ± 0.04
SMILES: CC(C)C[C@H](NC(=O)C[C@H](O)[C@H](CC(C)C)NC(=O)[C@H](Cc1c[nH]cn1)NC(=O)CNC(=O)[C@@H](NC(=O)[C@H](C)NC(=O)[C@H](Cc1c[nH]c2ccccc12)NC(=O)[C@H](CCC(N)=O)NC(=O)[C@@H](Cc1ccccc1)NC(=O)CCNC(=O)CCNC(=O)CN1CCN(CC(=O)O)CCN(CC(=O)O)CCN(CC(=O)O)CC1)C(C)C)C(N)=O [^68Ga-JMV4168, metal not drawn]
